Source: US5190961A, “Thiourea derivatives and antimicrobial agent and antulcer agent containing the same” (Terumo Kabushiki Kaisha, priority 1990, dated 1993)
Converted amounts (≈) assume the structure as drawn.

What was measured:
[1] = test system: Helicobacter pylori; experiment: Antimicrobial activity against Helicobacter pylori (MIC); type: cell-based, Helicobacter pylori strain NCTC 11916; conditions: NCTC11916, strain NCTC 11916, twofold dilution, 37° C., 3-5 days, O2 about 5%
Description: (3) Antimicrobial activity against Helicobacter pylori
Antimicrobial activity of the thiourea derivatives according to the invention against Helicobacter pylori (or Campylobacter pylori) was evaluated by employing strain NCTC 11916 as a Helicobacter test organism and determining MIC (minimum inhibitory concentration) for the strain with the thiourea derivative.
The Helicobacter pylori was pre-incubated in a plate medium for 3-5 days. The medium was prepared by dissolving 38 g of a Mueller-Hinton medium (manufactured by Difco) in an appropriate amount of distilled water, sterilizing the solution in an autoclave, adding to the solution 50 ml of a horse hemolysis solution (manufactured by Nippon Seibutu Zairyou Center: Horse defibrinized blood, hemolyzed by a lyophilization treatment) and 2 ml of Skirrow, a Campylobacter selective supplement (manufactured by OXOID) containing vancomycin (5 mg), trimethoprim (2.5 mg) and polymyxin B (1250 IU) per vial (2 ml), and further an appropriate amount of distilled water to a volume of 1L in total and expanding and solidifying the solution on a dish. These antibiotics were contained for inhibition of the growth of microorganism other than Helicobacter pylori. The Helicobacter pylori pre-incubated under slightly aerobic conditions (an O2 concentration of about 5%) at 37° C. for 3-5 days was suspended in a physiological saline solution in a concentration of approximately 10^8 organisms/ml. Approximately 10-20 μl of the suspension was inoculated on a medium for MIC measurement in cross streaks. […] The DMSO solution was formed by the twofold dilution method. As in the pre-incubation, the Helicobacter pylori was cultured under slightly aerobic conditions at 37° C. for 3-5 days. After completion of the culture, growth of the microoranisms on the streaks was visually determined. The minimum concentration of the thiourea derivative in which no growth was observed was taken as MIC.
It was confirmed that the thiourea derivatives of the invention not shown in the table also have a similar antimicrobial activity.

[2] = test system: ethanol peptic ulcer; experiment: Inhibitory action against ethanol peptic ulcer; type: in vivo; conditions: Rattus norvegicus; SD male rats, 32 mg/kg oral, 1 hour before ethanol 0.5 ml/100 g; read-out: Inhibitory action against ethanol peptic ulcer, Percent inhibition of p.u. formation
Description: (2) Inhibitory action against ethanol peptic ulcer
SD male rats (weighing 200-300 g) were fasted for 24 hours before oral administration of a thiourea derivative of the invention at a dose of 32 mg/kg bodyweight. One hour later, ethanol was orally given in a volume of 0.5 ml/100 g bodyweight. One hour after treating with ethanol, the rat was sacrificed with ether, and the stomach was excised and treated with formalin. Area (mm^2) of the lesions developed in the glandular stomach area was then measured. Results were expressed in sum of the lesions per animal which was referred to as peptic ulcer index.
(§1) It was confirmed that the thiourea derivatives of the invention not shown in the table also have a similar antiulcer activity.
Percent inhibition of the peptic ulcer formation (%) as shown in the table was calculated according to the same equation as mentioned above.

[3] = test system: peptic ulcer induced by water immersion restraint stress; experiment: Inhibitory action against the peptic ulcer induced by water immersion restraint stress; type: in vivo; conditions: Rattus norvegicus; SD male rats, 32 mg/kg oral, water immersion restraint stress 23° C., 7 hours; read-out: Inhibitory action against stress peptic ulcer, Percent inhibition of p.u. formation
Description: (1) Inhibitory action against the peptic ulcer induced by water immersion restraint stress
SD male rats (weighing 200-300 g) were fasted for 24 hours before oral administration of a thiourea derivative of the invention at a dose of 32 mg/kg bodyweight. One hour later, the animal was put in a stress cage and loaded with water immersion restraint stress in a water bath at 23° C. Seven hours after loading with the stress, the rate was sacrificed with ether, and the stomach was excised and treated with formalin. Area (mm^2 ) of the lesions developed in the glandular stomach area was then measured. Results were expressed in sum of the lesions per animal which was referred to as peptic ulcer index.
as §1
Percent inhibition of the peptic ulcer formation (%) as shown in the table was calculated according to the following equation: [formula]

SMILES | MIC [1] [µg/mL] | inhibition in vivo at 32 mg/kg [2] [%] | inhibition in vivo at 32 mg/kg [3] [%]
COc1ccc(NC(=S)NCCCC(=O)NCCCOc2cccc(CN3CCCCC3)c2)cn1 [Example 25, 1-[3-[N-[3-[3-(piperidinomethyl)phenoxy]propyl]carbamoyl]propyl]-3-[3-(6-methoxypyridyl)]thiourea] | 6.25 (≈ 12.5 µM) | 72.5 | 65.6
O=C(CCCNC(=S)NCc1ccco1)NCCCOc1cccc(CN2CCCCC2)c1 [Example 26, 1-[3-[N-[3-[3-(piperidinomethyl)phenoxy]propyl]carbamoyl]propyl]-3-furfurylthiourea] | 6.25 (≈ 13.2 µM) | 90.3 | 74.4
O=C(CCCNC(=S)NCc1cccs1)NCCCOc1cccc(CN2CCCCC2)c1 [Example 27, 1-[3-[N-[3-[3-(piperidinomethyl)phenoxy]propyl]carbamoyl]propyl]-3-(2-thienylmethyl)thiourea] | 6.25 (≈ 12.8 µM) | 88.2 | 72.5
O=C(CCCCCNC(=S)Nc1ccccc1)NCCCOc1cccc(CN2CCCCC2)c1 [Example 28, 1-[5-[N-[3-[3-(piperidinomethyl)phenoxy]propyl]carbamoyl]pentyl]-3-phenylthiourea] | 12.5 (≈ 25.2 µM) | 75.5 | 73.2
